Reference: patent publication US20240409585A1, “MACROCYCLIC IMMUNOMODULATORS” (priority 2021, published 2024)
Bridge positions count the residues as written; N and C are the ends. Square brackets hold non-standard residues; d marks the D form. Peptide text beside a SMILES is read from it. * marks the point of attachment. ξ: configuration not given here. Phe(3-CF3) = N[C@@H](Cc1cccc(C(F)(F)F)c1)C(=O)O; Phe(4-CONH2) = NC(=O)c1ccc(C[C@H](N)C(=O)O)cc1; Phe(4-COOH) = N[C@@H](Cc1ccc(C(=O)O)cc1)C(=O)O; Bip = N[C@@H](Cc1ccc(-c2ccccc2)cc1)C(=O)O; Lys(Me3) = C[N+](C)(C)CCCC[C@H](N)C(=O)O; Phe(3-Cl) = N[C@@H](Cc1cccc(Cl)c1)C(=O)O; Phe(3-OMe) = COc1cccc(C[C@H](N)C(=O)O)c1; Phe(3-F) = N[C@@H](Cc1cccc(F)c1)C(=O)O; Phe(3-Me) = Cc1cccc(C[C@H](N)C(=O)O)c1; Val(3-OH) = CC(C)(O)[C@H](N)C(=O)O; 3Pal = N[C@@H](Cc1cccnc1)C(=O)O; 4Pal = N[C@@H](Cc1ccncc1)C(=O)O; Cha = N[C@@H](CC1CCCCC1)C(=O)O; Cit = NC(=O)NCCC[C@H](N)C(=O)O; Ile(3ξ) = CCC(C)[C@H](N)C(=O)O; Thr(3ξ) = CC(O)[C@H](N)C(=O)O; Carboxymethyl = O=C(O)C*; NMeA = CN[C@@H](C)C(=O)O; Dab = NCC[C@H](N)C(=O)O; Dap = NC[C@H](N)C(=O)O; ξC = NC(CS)C(=O)O; Allyl = C=CC*

target: T1, PE-labeled human PD-L1-Ig binding to Jurkat cell line over-expressing human PD-1 (Jurkat-PD-1) (Homo sapiens, UniProt Q15116); test: Jurkat-PD-1 Cell Binding High-Content Screening Assay (CBA): Method 1; settings: Jurkat-hPD-1 cells, PE-labeled PD-L1-Ig 20 nM final; read-out: Jurkat HPDL1 PD1 IC50 (uM) (Method 1)
T1 construct: expressed in transfected cells; host or cells: Jurkat
T1 sequence (Q15116 25-288): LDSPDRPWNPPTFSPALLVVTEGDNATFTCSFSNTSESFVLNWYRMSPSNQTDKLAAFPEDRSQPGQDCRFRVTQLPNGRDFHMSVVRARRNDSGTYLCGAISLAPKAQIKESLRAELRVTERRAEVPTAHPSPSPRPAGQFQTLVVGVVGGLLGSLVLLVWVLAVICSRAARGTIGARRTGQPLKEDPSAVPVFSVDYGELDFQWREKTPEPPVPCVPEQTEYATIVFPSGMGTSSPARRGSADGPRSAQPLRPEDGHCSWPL

| SMILES | IC50 |
| --- | --- |
| CC(C)C[C@@H]1NC(=O)[C@H](CCN)NC(=O)[C@@H](CC(C)C)NC(=O)[C@H](C)N(C)C(=O)[C@H](CCCNC(N)=O)NC(=O)[C@H](Cc2ccc(-c3ccccc3)cc2)NC(=O)[C@H](C(C)C)NC(=O)[C@H](Cc2c[nH]c3ccccc23)NC(=O)[C@H](CC(=O)O)NC(=O)[C@H](Cc2ccc(O)cc2)NC(=O)[C@H](CCCNC(=N)N)NC(=O)CSC[C@@H](C(=O)N[C@@H](C)C(N)=O)NC(=O)[C@H]([C@@H](C)O)NC(=O)[C@H](C(C)C)NC1=O [Compound 1351] ({CH2CO}-RYDWV[Bip][Cit][NMeA][dL][Dab]LVTCA-NH2; thioether N-14) | 0.05 µM |
| CCC(C)[C@@H]1NC(=O)[C@H](Cc2ccc(-c3ccccc3)cc2)NC(=O)[C@H](C(C)C)NC(=O)[C@H](Cc2c[nH]c3ccccc23)NC(=O)[C@H](CC(=O)O)NC(=O)[C@H](Cc2cccc(OC)c2)NC(=O)[C@H](Cc2cccnc2)NC(=O)CSC[C@@H](C(=O)NCC(=O)N[C@@H](CN)C(=O)O)NC(=O)[C@H](C(C)O)NC(=O)[C@H](C(C)C)NC(=O)[C@H](CC2CCCCC2)NC(=O)[C@H](CC(N)=O)NC(=O)[C@@H](CC(C)C)NC(=O)[C@H](C)N(C)C1=O (stereo partly drawn) [Compound 2006] ({CH2CO}-[3Pal][Phe(3-OMe)]DWV[Bip][Ile(3ξ)][NMeA][dL]N[Cha]V[Thr(3ξ)]CG[Dap]-OH; thioether N-14) | 0.04 µM |
| CC(C)C[C@@H]1NC(=O)[C@H](Cc2c[nH]c3ccccc23)NC(=O)[C@H](CC(=O)O)NC(=O)[C@H](Cc2ccc(O)cc2)NC(=O)[C@H](Cc2ccccc2)NC(=O)CSC[C@@H](C(=O)N[C@@H](C)C(N)=O)NC(=O)[C@H]([C@@H](C)O)NC(=O)[C@H](C(C)C)NC(=O)[C@H](CC(C)C)NC(=O)[C@H](CC(N)=O)NC(=O)[C@@H](C)NC(=O)[C@H](C)N(C)C(=O)[C@H](C(C)C)NC(=O)[C@H](Cc2ccc(-c3ccccc3)cc2)NC1=O [Compound 1744] ({CH2CO}-FYDWL[Bip]V[NMeA][dA]NLVTCA-NH2; thioether N-14) | 0.02 µM |
| CC(C)C[C@@H]1NC(=O)[C@H](CCN)NC(=O)[C@@H](CC(C)C)NC(=O)[C@H](C)N(C)C(=O)[C@H](CCCNC(=N)N)NC(=O)[C@H](Cc2ccc(-c3ccccc3)cc2)NC(=O)[C@H](C(C)C)NC(=O)[C@H](Cc2c[nH]c3ccccc23)NC(=O)[C@H](CC(=O)O)NC(=O)[C@H](Cc2ccc(O)cc2)NC(=O)[C@H](CC(N)=O)NC(=O)CSC[C@@H](C(=O)NCC(N)=O)NC(=O)[C@H]([C@@H](C)O)NC(=O)[C@H](C(C)C)NC1=O [Compound 1249] ({CH2CO}-NYDWV[Bip]R[NMeA][dL][Dab]LVTCG-NH2; thioether N-14) | 0.06 µM |
| Cc1cccc(C[C@@H]2NC(=O)[C@H](CC(=O)O)NC(=O)[C@H](Cc3ccc(C(=O)O)cc3)NC(=O)[C@H](Cc3ccc(OCC(=O)O)cc3)NC(=O)CSC[C@@H](C(=O)N[C@@H](CC(=O)O)C(N)=O)NC(=O)[C@H](CO)NC(=O)[C@H](C(C)C)NC(=O)[C@H](CC(C)C)NC(=O)[C@H](CC(N)=O)NC(=O)[C@@H](CC(C)C)NC(=O)[C@H](C)N(C)C(=O)[C@H](C(C)C)NC(=O)[C@H](Cc3ccc(-c4ccccc4)cc3)NC(=O)[C@H](CC(C)C)NC2=O)c1 [Compound 1602] ({CH2CO}-Y(Carboxymethyl)[Phe(4-COOH)]D[Phe(3-Me)]L[Bip]V[NMeA][dL]NLVSCD-NH2; thioether N-14) | 0.01 µM |
| CC(C)C[C@@H]1NC(=O)[C@H](CCN)NC(=O)[C@@H](CC(C)C)NC(=O)[C@H](C)N(C)C(=O)[C@H](CCCNC(=N)N)NC(=O)[C@H](Cc2ccc(-c3ccccc3)cc2)NC(=O)[C@H](C(C)C)NC(=O)[C@H](Cc2c[nH]c3ccccc23)NC(=O)[C@H](CC(=O)O)NC(=O)[C@H](Cc2cccc(Cl)c2)NC(=O)[C@H](CC(N)=O)NC(=O)CSC[C@@H](C(=O)N[C@@H](C)C(N)=O)NC(=O)[C@H]([C@@H](C)O)NC(=O)[C@H](C(C)C)NC1=O [Compound 1316] ({CH2CO}-N[Phe(3-Cl)]DWV[Bip]R[NMeA][dL][Dab]LVTCA-NH2; thioether N-14) | 0.05 µM |
| CC(C)C[C@@H]1NC(=O)[C@H](CCN)NC(=O)[C@@H](CC(C)C)NC(=O)[C@H](C)N(C)C(=O)[C@H](C(C)C)NC(=O)[C@H](Cc2ccc(-c3ccccc3)cc2)NC(=O)[C@H](C(C)C)NC(=O)[C@H](Cc2cccc(C(F)(F)F)c2)NC(=O)[C@H](CC(=O)O)NC(=O)[C@H](Cc2ccc(O)cc2)NC(=O)[C@H](CC(N)=O)NC(=O)CSC[C@@H](C(=O)N[C@@H](C)C(N)=O)NC(=O)[C@H]([C@@H](C)O)NC(=O)[C@H](C(C)C)NC1=O [Compound 1290] ({CH2CO}-NYD[Phe(3-CF3)]V[Bip]V[NMeA][dL][Dab]LVTCA-NH2; thioether N-14) | 0.01 µM |
| C=CCOc1ccc(C[C@@H]2NC(=O)[C@H](Cc3ccccc3)NC(=O)CSC[C@@H](C(=O)N[C@@H](C)C(N)=O)NC(=O)[C@H]([C@@H](C)O)NC(=O)[C@H](C(C)C)NC(=O)[C@H](CC(C)C)NC(=O)[C@H](CCCNC(=N)N)NC(=O)[C@@H](CC(C)C)NC(=O)[C@H](C)N(C)C(=O)[C@H](CCCNC(=N)N)NC(=O)[C@H](Cc3ccc(-c4ccccc4)cc3)NC(=O)[C@H](C(C)C)NC(=O)[C@H](Cc3c[nH]c4ccccc34)NC(=O)[C@H](CC(=O)O)NC2=O)cc1 [Compound 1088] ({CH2CO}-FY(Allyl)DWV[Bip]R[NMeA][dL]RLVTCA-NH2; thioether N-14) | 0.41 µM |
| CCNC(=O)[C@H](CCN)NC(=O)[C@@H]1CSCC(=O)N[C@@H](Cc2ccncc2)C(=O)N[C@@H](Cc2ccc(OCC(=O)O)cc2)C(=O)N[C@@H](CC(=O)O)C(=O)N[C@@H](Cc2cccc(C)c2)C(=O)N[C@@H](Cc2cccc(F)c2)C(=O)N[C@@H](Cc2ccc(-c3ccccc3)cc2)C(=O)N[C@@H](Cc2ccc(OCC(=O)O)cc2)C(=O)N(C)[C@@H](C)C(=O)N[C@H](CC(C)C)C(=O)N[C@@H](CCN)C(=O)N[C@@H](CC2CCCCC2)C(=O)N[C@@H](C(C)(C)O)C(=O)N[C@@H](CO)C(=O)N1 [Compound 1845] ({CH2CO}-[4Pal]Y(Carboxymethyl)D[Phe(3-Me)][Phe(3-F)][Bip]Y(Carboxymethyl)[NMeA][dL][Dab][Cha][Val(3-OH)]SC[Dab]-NHEt; thioether N-14) | 0.01 µM |
| CC(C)C[C@@H]1NC(=O)[C@H](CCCNC(=N)N)NC(=O)[C@@H](C(C)C)NC(=O)[C@H](C)N(C)C(=O)[C@H](CCCNC(=N)N)NC(=O)[C@H](Cc2ccc(-c3ccccc3)cc2)NC(=O)[C@H](C(C)C)NC(=O)[C@H](Cc2c[nH]c3ccccc23)NC(=O)[C@H](CC(=O)O)NC(=O)[C@H](Cc2ccc(O)cc2)NC(=O)[C@H](Cc2ccccc2)NC(=O)CSC[C@@H](C(=O)N[C@@H](C)C(N)=O)NC(=O)[C@H]([C@@H](C)O)NC(=O)[C@H](C(C)C)NC1=O [Compound 1060] ({CH2CO}-FYDWV[Bip]R[NMeA][dV]RLVTCA-NH2; thioether N-14) | 0.11 µM |

Other lines, results leading:

| IC50 | SMILES |
| --- | --- |
| 0.02 µM | Cc1cccc(C[C@@H]2NC(=O)[C@H](CC(=O)O)NC(=O)[C@H](Cc3ccc(OCC(=O)O)cc3)NC(=O)[C@H](C(C)O)NC(=O)CSC[C@@H](C(=O)N[C@@H](CCN)C(N)=O)NC(=O)[C@H](Cc3cnc[nH]3)NC(=O)[C@H](C(C)(C)O)NC(=O)[C@H](CC3CCCCC3)NC(=O)[C@H](CCN)NC(=O)[C@@H](CC(C)C)NC(=O)[C@H](C)N(C)C(=O)[C@H](Cc3ccc(C(N)=O)cc3)NC(=O)[C@H](Cc3ccc(-c4ccccc4)cc3)NC(=O)[C@H](Cc3ccc(OCC(=O)O)cc3)NC2=O)c1 (stereo partly drawn) [Compound 2158] ({CH2CO}-[Thr(3ξ)]Y(Carboxymethyl)D[Phe(3-Me)]Y(Carboxymethyl)[Bip][Phe(4-CONH2)][NMeA][dL][Dab][Cha][Val(3-OH)]HC[Dab]-NH2; thioether N-14) |
| 0.05 µM | Cc1cccc(C[C@@H]2NC(=O)[C@H](CC(=O)O)NC(=O)[C@H](Cc3ccc(OCC(=O)O)cc3)NC(=O)[C@H](C(C)C)NC(=O)CSC[C@@H](C(=O)N[C@@H](CN)C(N)=O)NC(=O)[C@H](C(C)O)NC(=O)[C@H](C(C)(C)O)NC(=O)[C@H](CC3CCCCC3)NC(=O)[C@H](CCN)NC(=O)[C@@H](CC(C)C)NC(=O)[C@H](C)N(C)C(=O)[C@H](CCCNC(N)=O)NC(=O)[C@H](Cc3ccc(-c4ccccc4)cc3)NC(=O)[C@H](Cc3ccc(OCC(=O)O)cc3)NC2=O)c1 (stereo partly drawn) [Compound 2167] ({CH2CO}-VY(Carboxymethyl)D[Phe(3-Me)]Y(Carboxymethyl)[Bip][Cit][NMeA][dL][Dab][Cha][Val(3-OH)][Thr(3ξ)]C[Dap]-NH2; thioether N-14) |
| 0.04 µM | CCC(C)[C@@H]1NC(=O)[C@H](Cc2ccc(-c3ccccc3)cc2)NC(=O)[C@H](C(C)C)NC(=O)[C@H](Cc2cccc(C)c2)NC(=O)[C@H](CC(=O)O)NC(=O)[C@H](Cc2ccc(OCC(=O)O)cc2)NC(=O)[C@H](CCCC[N+](C)(C)C)NC(=O)CSCC(C(=O)NCC(N)=O)NC(=O)[C@H](CO)NC(=O)[C@H](C(C)C)NC(=O)[C@H](CC(C)C)NC(=O)[C@H](CC(N)=O)NC(=O)[C@@H](CC(C)C)NC(=O)[C@H](C)N(C)C1=O (stereo partly drawn) [Compound 2064] ({CH2CO}-[Lys(Me3)]Y(Carboxymethyl)D[Phe(3-Me)]V[Bip][Ile(3ξ)][NMeA][dL]NLVS[ξC]G-NH2; thioether N-14) |
| 0.04 µM | CCC(C)[C@@H]1NC(=O)[C@H](Cc2ccc(-c3ccccc3)cc2)NC(=O)[C@H](Cc2ccc(O)cc2)NC(=O)[C@H](Cc2cccc(C)c2)NC(=O)[C@H](CC(=O)O)NC(=O)[C@H](Cc2ccc(OCC(=O)O)cc2)NC(=O)[C@H](C(C)O)NC(=O)CSC[C@@H](C(=O)N[C@@H](CO)C(N)=O)NC(=O)[C@H](C(C)O)NC(=O)[C@H](C(C)C)NC(=O)[C@H](CC2CCCCC2)NC(=O)[C@H](CCN)NC(=O)[C@@H](CC(C)C)NC(=O)[C@H](C)N(C)C1=O (stereo partly drawn) [Compound 2121] ({CH2CO}-[Thr(3ξ)]Y(Carboxymethyl)D[Phe(3-Me)]Y[Bip][Ile(3ξ)][NMeA][dL][Dab][Cha]V[Thr(3ξ)]CS-NH2; thioether N-14) |
| 0.07 µM | CCC(C)[C@@H]1NC(=O)[C@H](Cc2ccc(-c3ccccc3)cc2)NC(=O)[C@H](C(C)C)NC(=O)[C@H](Cc2c[nH]c3ccccc23)NC(=O)[C@H](CC(=O)O)NC(=O)[C@H](Cc2ccc(OCC(=O)O)cc2)NC(=O)[C@H](CN)NC(=O)CSC[C@@H](C(=O)N[C@@H](C)C(N)=O)NC(=O)[C@H](C(C)O)NC(=O)[C@H](C(C)C)NC(=O)[C@H](CC(C)C)NC(=O)[C@H](CCN)NC(=O)[C@@H](CC(C)C)NC(=O)[C@H](C)N(C)C1=O (stereo partly drawn) [Compound 2084] ({CH2CO}-[Dap]Y(Carboxymethyl)DWV[Bip][Ile(3ξ)][NMeA][dL][Dab]LV[Thr(3ξ)]CA-NH2; thioether N-14) |
